Measured values: US20170000133A1, “BENZOXABOROLE FUNGICIDES” (SYNGENTA PARTICIPATIONS AG, priority 2013, published 2017)

Experiments:
[1] = system: Thanatephorus cucumeris (Rhizoctonia solani); test: Thanatephorus cucumeris (Rhizoctonia solani) / liquid culture (foot rot, damping-off); format: cell-based; conditions: PDB potato dextrose broth, 24° C., 3-4 days after application, read-out: disease control (inhibition of growth determined photometrically)
Protocol: 17. Thanatephorus cucumeris (Rhizoctonia solani)/Liquid Culture (Foot Rot, Damping-Off): Mycelia fragments of a newly grown liquid culture of the fungus were directly mixed into nutrient broth (PDB potato dextrose broth). After placing a DMSO solution of the test compounds into a 96-well microtiter plate at an application rate of 200 ppm, the nutrient broth containing the fungal material was added. The test plates were incubated at 24° C. and the inhibition of growth was determined photometrically 3-4 days after application.

[2] = system: Pythium ultimum; test: Pythium ultimum / liquid culture (seedling damping off); format: cell-based; conditions: Globisporangium ultimum; 200 ppm; potato dextrose broth, 24° C., 2-3 days after application; read-out: disease control (inhibition of growth determined photometrically)
[3] = system: Monographella nivalis (Microdochium nivale); test: Monographella nivalis (Microdochium nivale) / liquid culture (foot rot cereals); format: cell-based; conditions: PDB potato dextrose broth, 24° C., 4-5 days after application, read-out: disease control (inhibition of growth determined photometrically)
[4] = system: Gaeumannomyces graminis; test: Gaeumannomyces graminis / liquid culture (take-all of cereals); format: cell-based; conditions: PDB potato dextrose broth, 24° C., 4-5 days after application, read-out: disease control (inhibition of growth determined photometrically)
Protocol: 14. Gaeumannomyces graminis/Liquid Culture (Take-all of Cereals): Mycelial fragments of the fungus from cryogenic storage were directly mixed into nutrient broth (PDB potato dextrose broth). After placing a DMSO solution of test compound into a 96-well microtiter plate at an application rate of 200 ppm, the nutrient broth […], containing the fungal spores is added. The test plates were incubated at 24° C. and the inhibition of growth was determined photometrically 4-5 days after application.

[5] = system: Mycosphaerella graminicola (Septoria tritici); test: Mycosphaerella graminicola (Septoria tritici) / liquid culture (Septoria blotch); format: cell-based; conditions: Zymoseptoria tritici, PDB potato dextrose broth, 24° C., 4-5 days after application, read-out: disease control (inhibition of growth determined photometrically)
Protocol: 13. Mycosphaerella graminicola (Septoria tritici)/Liquid Culture (Septoria Blotch): Conidia of the fungus from cryogenic storage were directly mixed into nutrient broth (PDB potato dextrose broth). After placing a DMSO solution of test compound into a 96-well microtiter plate at an application rate of 200 ppm, the nutrient broth containing the fungal spores was added. The test plates were incubated at 24° C. and the inhibition of growth was determined photometrically 4-5 days after application.

[6] = system: Plasmopara viticola; test: whole plant or invertebrate; format: in vivo; conditions: foliar, read-out: disease control
[7] = system: Mycosphaerella arachidis (Cercospora arachidicola); test: Mycosphaerella arachidis (Cercospora arachidicola) / liquid culture (early leaf spot); format: cell-based; conditions: PDB potato dextrose broth, 24° C., 4-5 days after application, read-out: disease control (inhibition of growth determined photometrically)
Protocol: 12. Mycosphaerella arachidis (Cercospora arachidicola)/Liquid Culture (Early Leaf Spot): Conidia of the fungus from cryogenic storage were directly mixed into nutrient broth (PDB potato dextrose broth). After placing a DMSO solution of test compound into a 96-well microtiter plate at an application rate of 200 ppm, the nutrient broth containing the fungal spores was added. The test plates were incubated at 24° C. and the inhibition of growth was determined photometrically 4-5 days after application.

O=C(OCCC(F)(F)F)c1cc2c(cc1F)COB2O [Compound 431]
≥ 80%: inhibition at 200 ppm [1] | inhibition at 200 ppm [2] | inhibition at 200 ppm [3] | inhibition at 200 ppm [4]

O=C(OCC(F)(F)Cl)c1cc2c(cc1F)COB2O [Compound 374]
≥ 80%: inhibition at 200 ppm [1] | inhibition at 200 ppm [5] | inhibition at 200 ppm [2] | inhibition at 200 ppm [3] | pest or weed control at 200 ppm [6] | inhibition at 200 ppm [4]

O=C(OC(CF)CF)c1ccc2c(c1)B(O)OC2 [Compound 311]
≥ 80%: inhibition at 200 ppm [7] | inhibition at 200 ppm [1] | inhibition at 200 ppm [2] | inhibition at 200 ppm [3] | pest or weed control at 200 ppm [6]

O=C(OCC1CCCO1)c1cc2c(cc1F)COB2O (stereo not shown) [Compound 400]
≥ 80%: inhibition at 200 ppm [1] | inhibition at 200 ppm [2] | pest or weed control at 200 ppm [6]

O=C(COC(=O)c1cc2c(cc1F)COB2O)c1ccccc1 [Compound 397]
≥ 80%: inhibition at 200 ppm [1] | inhibition at 200 ppm [5] | inhibition at 200 ppm [2] | inhibition at 200 ppm [3] | pest or weed control at 200 ppm [6]

O=C(Nc1ccc2ccccc2n1)c1cc2c(cc1F)COB2O [Compound 179]
≥ 80%: inhibition at 200 ppm [5] | inhibition at 200 ppm [2] | inhibition at 200 ppm [3] | pest or weed control at 200 ppm [6] | inhibition at 200 ppm [4]

O=C(OC(CF)CF)c1cc2c(cc1F)COB2O [Compound 368]
≥ 80%: inhibition at 200 ppm [1] | inhibition at 200 ppm [2] | inhibition at 200 ppm [3] | pest or weed control at 200 ppm [6]

CC(F)COC(=O)c1cc2c(cc1F)COB2O (stereo not shown) [Compound 396]
≥ 80%: inhibition at 200 ppm [7] | inhibition at 200 ppm [1] | inhibition at 200 ppm [2] | inhibition at 200 ppm [3] | pest or weed control at 200 ppm [6]

N#CCOC(=O)c1ccc2c(c1)B(O)OC2 [Compound 338]
≥ 80%: inhibition at 200 ppm [1] | inhibition at 200 ppm [2] | pest or weed control at 200 ppm [6]

O=C(OC1CCCCC1)c1cc2c(cc1F)COB2O [Compound 417]
≥ 80%: inhibition at 200 ppm [1] | inhibition at 200 ppm [5] | inhibition at 200 ppm [2] | inhibition at 200 ppm [3] | pest or weed control at 200 ppm [6] | inhibition at 200 ppm [4]

CC(C#N)OC(=O)c1ccc2c(c1)B(O)OC2 (stereo not shown) [Compound 315]
≥ 80%: inhibition at 200 ppm [1] | inhibition at 200 ppm [2]

C#CC(OC(=O)c1cc2c(cc1F)COB2O)c1ccccc1 (stereo not shown) [Compound 399]
≥ 80%: inhibition at 200 ppm [1] | inhibition at 200 ppm [5] | inhibition at 200 ppm [2] | inhibition at 200 ppm [3] | pest or weed control at 200 ppm [6] | inhibition at 200 ppm [4]

O=C(NCc1ccccc1)c1ccc2c(c1)B(O)OC2 [Compound 261]
≥ 80%: inhibition at 200 ppm [7] | inhibition at 200 ppm [2] | pest or weed control at 200 ppm [6]

Cc1csc(NC(=O)c2ccc3c(c2)B(O)OC3)n1 [Compound 298]
≥ 80%: inhibition at 200 ppm [7] | inhibition at 200 ppm [2] | pest or weed control at 200 ppm [6]

O=C(NCc1ccc(Oc2ccccc2)cc1)c1cc2c(cc1Cl)COB2O [Compound 103]
≥ 80%: inhibition at 200 ppm [2] | inhibition at 200 ppm [3] | pest or weed control at 200 ppm [6] | inhibition at 200 ppm [4]

O=C(OCCCCc1ccc2ccccc2c1)c1ccc2c(c1)B(O)OC2 [Compound 353]
≥ 80%: inhibition at 200 ppm [7] | inhibition at 200 ppm [4]

O=C(NCCOc1ccccc1)c1ccc2c(c1)B(O)OC2 [Compound 267]
≥ 80%: inhibition at 200 ppm [7] | inhibition at 200 ppm [2]

COCCOC(=O)c1ccc2c(c1)B(O)OC2 [Compound 350]
≥ 80%: inhibition at 200 ppm [7] | inhibition at 200 ppm [1] | inhibition at 200 ppm [2] | inhibition at 200 ppm [3]

O=C(OCc1ncc(C(F)(F)F)cc1Cl)c1ccc2c(c1)B(O)OC2 [Compound 347]
≥ 80%: inhibition at 200 ppm [7] | inhibition at 200 ppm [2] | inhibition at 200 ppm [4]

CC(=O)c1sc(NC(=O)c2ccc3c(c2)B(O)OC3)nc1C [Compound 302]
≥ 80%: inhibition at 200 ppm [7] | inhibition at 200 ppm [2]

O=C(OCC(Cl)(Cl)Cl)c1ccc2c(c1)B(O)OC2 [Compound 321]
≥ 80%: inhibition at 200 ppm [1] | inhibition at 200 ppm [5] | inhibition at 200 ppm [2] | inhibition at 200 ppm [3] | inhibition at 200 ppm [4]

C[Si](C)(C)CCCOC(=O)c1ccc2c(c1)B(O)OC2 [Compound 316]
≥ 80%: inhibition at 200 ppm [1] | inhibition at 200 ppm [2] | inhibition at 200 ppm [3] | inhibition at 200 ppm [4]

COc1ccc(CNC(=O)c2ccc3c(c2)B(O)OC3)cc1 [Compound 271]
≥ 80%: inhibition at 200 ppm [7] | inhibition at 200 ppm [2] | pest or weed control at 200 ppm [6]

O=C(OC1CCOC1)c1ccc2c(c1)B(O)OC2 (stereo not shown) [Compound 364]
≥ 80%: inhibition at 200 ppm [1] | inhibition at 200 ppm [2] | pest or weed control at 200 ppm [6]

O=C(NCc1ccccc1)c1cc2c(cc1F)COB2O [Compound 104]
≥ 80%: inhibition at 200 ppm [7] | inhibition at 200 ppm [2]

COCCOCCOCCOC(=O)c1ccc2c(c1)B(O)OC2 [Compound 371]
≥ 80%: inhibition at 200 ppm [7] | inhibition at 200 ppm [2]

O=C(OCCCCc1ccc2ccccc2c1)c1cc2c(cc1F)COB2O [Compound 415]
≥ 80%: inhibition at 200 ppm [7] | inhibition at 200 ppm [1] | inhibition at 200 ppm [3] | inhibition at 200 ppm [4]

Cc1ccccc1NC(=O)c1cc2c(cc1F)COB2O [Compound 148]
≥ 80%: inhibition at 200 ppm [1] | inhibition at 200 ppm [2]

CC(F)COC(=O)c1ccc2c(c1)B(O)OC2 (stereo not shown) [Compound 335]
≥ 80%: inhibition at 200 ppm [1] | inhibition at 200 ppm [2] | pest or weed control at 200 ppm [6]

O=C(OCc1ccc(C(F)(F)F)nc1)c1cc2c(cc1F)COB2O [Compound 405]
≥ 80%: inhibition at 200 ppm [7] | inhibition at 200 ppm [1] | inhibition at 200 ppm [2] | inhibition at 200 ppm [3]

C=CCC(OC(=O)c1cc2c(cc1Cl)COB2O)C(=O)OC (stereo not shown) [Compound 222]
≥ 80%: inhibition at 200 ppm [1] | inhibition at 200 ppm [2] | inhibition at 200 ppm [3]

O=C(Nc1ccccc1-c1cc2ccccc2[nH]1)c1ccc2c(c1)B(O)OC2 [Compound 292]
≥ 80%: inhibition at 200 ppm [2] | pest or weed control at 200 ppm [6] | inhibition at 200 ppm [4]

O=C(OCc1ccco1)c1cc2c(cc1Cl)COB2O [Compound 210]
≥ 80%: inhibition at 200 ppm [1] | inhibition at 200 ppm [2] | inhibition at 200 ppm [4]

O=C(OC1CCOCC1)c1ccc2c(c1)B(O)OC2 [Compound 366]
≥ 80%: inhibition at 200 ppm [7] | inhibition at 200 ppm [1] | inhibition at 200 ppm [2] | pest or weed control at 200 ppm [6]

O=C(Nc1ccc2ccccc2n1)c1cc2c(cc1Cl)COB2O [Compound 154]
≥ 80%: inhibition at 200 ppm [5] | inhibition at 200 ppm [2]
